Data taken from patent US20260297070A1, “CYCLIC [COMPOUND LEFT OUT] WRN INHIBITORS” (Nimbus Wadjet, Inc., priority 2023, published 2026).

target: T1, human Werner helicase (WRN-BV08, Uniprot Q14191, amino acids 517-1235 with L1074F point mutation) (Homo sapiens, UniProt Q14191, L1074F); test: WRN (BV08) ADP-Glo Assay; assay type: biochemical; conditions: 0.15 nM WRN, 5 μM ATP, 0.1 nM DNA duplex, 15 min preincubation, 60 min at 25° C., pH 7.5, 1% DMSO; read-out: ADP-Glo_hWRN_IC50
T1 construct: Uniprot Q14191, amino acids 517-1235 with L1074F point mutation; TEV-cleavable 8×His (C, cleaved yes); made in house; host or cells: Sf9 insect cells (baculovirus)
T1 sequence (Q14191 with tags, fused parts or gaps L1074F limits assumed): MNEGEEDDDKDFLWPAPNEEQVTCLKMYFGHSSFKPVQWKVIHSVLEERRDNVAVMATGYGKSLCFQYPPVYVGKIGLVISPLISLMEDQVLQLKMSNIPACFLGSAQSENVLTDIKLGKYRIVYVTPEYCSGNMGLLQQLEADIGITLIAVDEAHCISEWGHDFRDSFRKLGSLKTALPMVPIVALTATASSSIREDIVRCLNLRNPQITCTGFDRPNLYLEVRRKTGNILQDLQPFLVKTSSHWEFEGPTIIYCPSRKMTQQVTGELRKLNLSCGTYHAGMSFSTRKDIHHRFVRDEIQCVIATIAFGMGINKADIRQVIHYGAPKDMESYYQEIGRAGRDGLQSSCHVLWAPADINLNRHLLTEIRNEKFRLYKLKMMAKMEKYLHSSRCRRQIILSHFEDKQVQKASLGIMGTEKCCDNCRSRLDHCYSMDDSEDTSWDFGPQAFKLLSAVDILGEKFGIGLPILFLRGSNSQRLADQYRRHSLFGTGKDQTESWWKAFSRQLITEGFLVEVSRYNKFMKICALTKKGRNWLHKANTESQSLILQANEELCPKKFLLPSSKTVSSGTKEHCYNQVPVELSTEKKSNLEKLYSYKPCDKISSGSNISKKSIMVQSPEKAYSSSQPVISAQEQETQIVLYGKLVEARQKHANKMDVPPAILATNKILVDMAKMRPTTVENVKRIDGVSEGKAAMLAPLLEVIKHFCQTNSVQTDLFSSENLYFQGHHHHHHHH
How it was run: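 Percent inhibition was normalised to DMSO (max) and 20 μM NSC-617145 (min) controls from ADP-Glo luminescence, and IC50 values came from a four-parameter fit. The reaction ran 60 min at 25 °C with 0.15 nM WRN, 5 μM ATP and 0.1 nM duplex DNA.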

Row | SMILES | IC50
1 | COc1ccc(CN(C(=O)Cn2cc(-c3ccc(F)c(F)c3)cn2)C2C=CS(=O)(=O)C2)cn1 (stereo not shown) [I-762, 2-[4-(3,4-difluorophenyl)-1H-pyrazol-1-yl]-N-(1,1-dioxo-2,3-dihydro-1lambda6-thiophen-3-yl)-N-[(6-methoxypyridin-3-yl)methyl]acetamide] | 500 to 5000 nM
2 | COc1cc(CN(C(=O)Cn2cc(-c3cc(F)c(F)c(F)c3)cn2)[C@@H]2C=CS(=O)(=O)C2)ccn1 [I-764, N-[(3R)-1,1-dioxo-2,3-dihydro-1lambda6-thiophen-3-yl]-N-[(2-methoxypyridin-4-yl)methyl]-2-[4-(3,4,5-trifluorophenyl)-1H-pyrazol-1-yl]acetamide] | < 500 nM
3 | COc1cc(CN(C(=O)Cn2nc3ccc(C(F)(F)F)cc3c2C)[C@@H]2C=CS(=O)(=O)C2)ccn1 [I-766, N-[(3R)-1,1-dioxo-2,3-dihydro-1lambda6-thiophen-3-yl]-N-[(2-methoxypyridin-4-yl)methyl]-2-[3-methyl-5-(trifluoromethyl)-2H-indazol-2-yl]acetamide] | 5000 to 10000 nM
4 | CC(C)(O)COc1cc(CN(C(=O)Cc2ccc(S(F)(F)(F)(F)F)cc2)C2C=CS(=O)(=O)C2)ccn1 (stereo not shown) [I-768, N-(1,1-dioxo-2,3-dihydro-1lambda6-thiophen-3-yl)-N-{[2-(2-hydroxy-2-methylpropoxy)pyridin-4-yl]methyl}-2-[4-(pentafluoro-lambda6-sulfanyl)phenyl]acetamide] | < 500 nM
5 | COc1cc(CN(C(=O)Cn2ncc3cc(C(F)(F)C(F)(F)F)ccc32)[C@@H]2C=CS(=O)(=O)C2)ccn1 [I-770, N-[(3R)-1,1-dioxo-2,3-dihydro-1lambda6-thiophen-3-yl]-N-[(2-methoxypyridin-4-yl)methyl]-2-[5-(1,1,2,2,2-pentafluoroethyl)-1H-indazol-1-yl]acetamide] | 500 to 5000 nM
6 | COc1cc(CN(C(=O)Cn2cc3cc(C(F)(F)C(F)(F)F)ccc3n2)[C@@H]2C=CS(=O)(=O)C2)ccn1 [I-771, N-[(3R)-1,1-dioxo-2,3-dihydro-1lambda6-thiophen-3-yl]-N-[(2-methoxypyridin-4-yl)methyl]-2-[5-(1,1,2,2,2-pentafluoroethyl)-2H-indazol-2-yl]acetamide] | < 500 nM
7 | O=C(Cn1cc(-c2cc(F)c(F)c(F)c2)cn1)N(Cc1ccnc(Oc2ccncc2)c1)C1C=CS(=O)(=O)C1 (stereo not shown) [I-772, N-(1,1-dioxo-2,3-dihydro-1lambda6-thiophen-3-yl)-N-{[2-(pyridin-4-yloxy)pyridin-4-yl]methyl}-2-[4-(3,4,5-trifluorophenyl)-1H-pyrazol-1-yl]acetamide] | < 500 nM
8 | CN(Cc1ccncc1)C(=O)c1ccc(CN(C(=O)Cc2ccc(-c3ccc(F)c(F)c3)cc2F)C2C=CS(=O)(=O)C2)cc1 (stereo not shown) [I-778, 4-{[N-(1,1-dioxo-2,3-dihydro-1lambda6-thiophen-3-yl)-2-{3,3′,4′-trifluoro-[1,1′-biphenyl]-4-yl}acetamido]methyl}-N-methyl-N-[(pyridin-4-yl)methyl]benzamide] | 500 to 5000 nM
9 | CN(C)C(=O)c1ccc(CN(C(=O)Cc2ccc(-c3ccc(F)c(F)c3)cc2F)C2C=CS(=O)(=O)C2)cc1 (stereo not shown) [I-779, 4-{[N-(1,1-dioxo-2,3-dihydro-1lambda6-thiophen-3-yl)-2-{3,3′,4′-trifluoro-[1,1′-biphenyl]-4-yl}acetamido]methyl}-N,N-dimethylbenzamide] | 500 to 5000 nM
10 | O=C(c1ccc(CN(C(=O)Cc2ccc(-c3ccc(F)c(F)c3)cc2F)C2C=CS(=O)(=O)C2)cc1)N1CCOCC1 (stereo not shown) [I-780, N-(1,1-dioxo-2,3-dihydro-1lambda6-thiophen-3-yl)-N-{[4-(morpholine-4-carbonyl)phenyl]methyl}-2-{3,3′,4′-trifluoro-[1,1′-biphenyl]-4-yl}acetamide] | 500 to 5000 nM
11 | O=C(Cn1cc(-c2cc(F)c(F)c(F)c2)cn1)N(Cc1ccc(Cc2ccncc2)cc1)C1C=CS(=O)(=O)C1 (stereo not shown) [I-782, N-(1,1-dioxo-2,3-dihydro-1lambda6-thiophen-3-yl)-N-({4-[(pyridin-4-yl)methyl]phenyl}methyl)-2-[4-(3,4,5-trifluorophenyl)-1H-pyrazol-1-yl]acetamide] | < 500 nM
12 | O=C(Cn1cc(-c2cc(F)c(F)c(F)c2)cn1)N(Cc1ccc(OCc2ccncc2)cc1)C1C=CS(=O)(=O)C1 (stereo not shown) [I-783, N-(1,1-dioxo-2,3-dihydro-1lambda6-thiophen-3-yl)-N-({4-[(pyridin-4-yl)methoxy]phenyl}methyl)-2-[4-(3,4,5-trifluorophenyl)-1H-pyrazol-1-yl]acetamide] | < 500 nM
13 | COc1cc(CN(C(=O)C2CCc3c([nH]c4cccc(Cl)c34)C2)[C@@H]2C=CS(=O)(=O)C2)ccn1 (stereo partly drawn) [I-785, 5-chloro-N-[(3R)-1,1-dioxo-2,3-dihydro-1lambda6-thiophen-3-yl]-N-[(2-methoxypyridin-4-yl)methyl]-2,3,4,9-tetrahydro-1H-carbazole-2-carboxamide] | > 50000 nM
14 | COc1cc(CN(C(=O)C2CCc3[nH]c4cc(Cl)ccc4c3C2)[C@@H]2C=CS(=O)(=O)C2)ccn1 (stereo partly drawn) [I-786, 7-chloro-N-[(3R)-1,1-dioxo-2,3-dihydro-1lambda6-thiophen-3-yl]-N-[(2-methoxypyridin-4-yl)methyl]-2,3,4,9-tetrahydro-1H-carbazole-3-carboxamide] | 500 to 5000 nM
15 | O=C(Cn1cc(-c2ccc(F)c(F)c2)cn1)N(Cc1ccnc(N2CCNCC2)c1)C1C=CS(=O)(=O)C1 (stereo not shown) [I-787, 2-[4-(3,4-difluorophenyl)-1H-pyrazol-1-yl]-N-(1,1-dioxo-2,3-dihydro-1lambda6-thiophen-3-yl)-N-{[2-(piperazin-1-yl)pyridin-4-yl]methyl}acetamide] | 500 to 5000 nM
16 | CN(CCc1ccncc1)C(=O)c1ccc(CN(C(=O)Cc2ccc(-c3ccc(F)c(F)c3)cc2F)C2C=CS(=O)(=O)C2)cc1 (stereo not shown) [I-791, 4-{[N-(1,1-dioxo-2,3-dihydro-1lambda6-thiophen-3-yl)-2-{3,3′,4′-trifluoro-[1,1′-biphenyl]-4-yl}acetamido]methyl}-N-methyl-N-[2-(pyridin-4-yl)ethyl]benzamide] | 500 to 5000 nM
17 | COc1cc(CN(C(=O)C(O/C=C/S(C)(=O)=O)c2ccc(-c3ccc(F)c(F)c3)cc2F)[C@@H]2C=CS(=O)(=O)C2)ccn1 (stereo partly drawn) [I-793, N-[(3R)-1,1-dioxo-2,3-dihydro-1lambda6-thiophen-3-yl]-2-{[(1E)-2-methanesulfonylethenyl]oxy}-N-[(2-methoxypyridin-4-yl)methyl]-2-{3,3′,4′-trifluoro-[1,1′-biphenyl]-4-yl}acetamide] | 500 to 5000 nM
18 | CC(C)(N)c1ccc(CN(C(=O)Cn2cc(-c3ccc(F)c(F)c3)cn2)C2C=CS(=O)(=O)C2)cc1 (stereo not shown) [I-795, N-{[4-(2-aminopropan-2-yl)phenyl]methyl}-2-[4-(3,4-difluorophenyl)-1H-pyrazol-1-yl]-N-(1,1-dioxo-2,3-dihydro-1lambda6-thiophen-3-yl)acetamide] | 500 to 5000 nM
19 | O=C(c1ccc(CN(C(=O)Cc2ccc(-c3ccc(F)c(F)c3)cc2F)C2C=CS(=O)(=O)C2)cc1)N1CCCCC1 (stereo not shown) [I-796, N-(1,1-dioxo-2,3-dihydro-1lambda6-thiophen-3-yl)-N-{[4-(piperidine-1-carbonyl)phenyl]methyl}-2-{3,3′,4′-trifluoro-[1,1′-biphenyl]-4-yl}acetamide] | 500 to 5000 nM
20 | CC(C)(O)c1csc(CN(C(=O)Cn2cc(-c3cc(F)c(F)c(F)c3)cn2)C2C=CS(=O)(=O)C2)n1 (stereo not shown) [I-797, N-(1,1-dioxo-2,3-dihydro-1lambda6-thiophen-3-yl)-N-{[4-(2-hydroxypropan-2-yl)-1,3-thiazol-2-yl]methyl}-2-[4-(3,4,5-trifluorophenyl)-1H-pyrazol-1-yl]acetamide] | < 500 nM
21 | COc1cc(CN(C(=O)C(OCC2COC2)c2ccc(-c3ccc(F)c(F)c3)cc2F)[C@@H]2C=CS(=O)(=O)C2)ccn1 (stereo partly drawn) [I-807, N-[(3R)-1,1-dioxo-2,3-dihydro-1lambda6-thiophen-3-yl]-N-[(2-methoxypyridin-4-yl)methyl]-2-[(oxetan-3-yl)methoxy]-2-{3,3′,4′-trifluoro-[1,1′-biphenyl]-4-yl}acetamide] | 5000 to 10000 nM
22 | COc1cc(CN(C(=O)C(OCC2CCN(S(C)(=O)=O)C2)c2ccc(-c3ccc(F)c(F)c3)cc2F)[C@@H]2C=CS(=O)(=O)C2)ccn1 (stereo partly drawn) [I-808, N-[(3R)-1,1-dioxo-2,3-dihydro-1lambda6-thiophen-3-yl]-2-[(1-methanesulfonylpyrrolidin-3-yl)methoxy]-N-[(2-methoxypyridin-4-yl)methyl]-2-{3,3′,4′-trifluoro-[1,1′-biphenyl]-4-yl}acetamide] | 500 to 5000 nM
23 | COc1cc(CN(C(=O)C(OCC2CCCN(S(C)(=O)=O)C2)c2ccc(-c3ccc(F)c(F)c3)cc2F)[C@@H]2C=CS(=O)(=O)C2)ccn1 (stereo partly drawn) [I-809, N-[(3R)-1,1-dioxo-2,3-dihydro-1lambda6-thiophen-3-yl]-2-[(1-methanesulfonylpiperidin-3-yl)methoxy]-N-[(2-methoxypyridin-4-yl)methyl]-2-{3,3′,4′-trifluoro-[1,1′-biphenyl]-4-yl}acetamide] | 500 to 5000 nM
24 | COc1cc(CN(C(=O)C(OCC2CN(S(C)(=O)=O)C2)c2ccc(-c3ccc(F)c(F)c3)cc2F)[C@@H]2C=CS(=O)(=O)C2)ccn1 (stereo partly drawn) [I-810, N-[(3R)-1,1-dioxo-2,3-dihydro-1lambda6-thiophen-3-yl]-2-[(1-methanesulfonylazetidin-3-yl)methoxy]-N-[(2-methoxypyridin-4-yl)methyl]-2-{3,3′,4′-trifluoro-[1,1′-biphenyl]-4-yl}acetamide] | 500 to 5000 nM
25 | COc1cc(CN(C(=O)C(OCC2CCOCC2)c2ccc(-c3ccc(F)c(F)c3)cc2F)[C@@H]2C=CS(=O)(=O)C2)ccn1 (stereo partly drawn) [I-811, N-[(3R)-1,1-dioxo-2,3-dihydro-1lambda6-thiophen-3-yl]-N-[(2-methoxypyridin-4-yl)methyl]-2-[(oxan-4-yl)methoxy]-2-{3,3′,4′-trifluoro-[1,1′-biphenyl]-4-yl}acetamide] | 500 to 5000 nM
